Key:
[1] = biological target: mA2a (Mus musculus (Mouse), UniProt Q60613); experiment: cAMP inhibition assay in mA2a/CHO cells; format: cell-based; settings: 10 μM adenosine, read-out: cAMP & FLIPR IC50 (nM) mA2a
Description: (§1) hA2a/CHO, hA2b/CHO and mA2a/CHO(Genscript) were plated at 5×10^3 cells/well into 384-well polystyrene plates at the day of experiment. Compounds were pre-incubated with cells for 30 min at 37° C., 5% CO2. Then 10 μM adenosine was added to the cells and incubated for 30 min at 37° C., 5% CO2. Detection reagent (CISBIO) was added and the plates were incubated for 60 min at room temperature. The signal was captured by Envision.

[2] = biological target: hA2a (Homo sapiens (Human), UniProt P29274); experiment: cAMP inhibition assay in hA2a/CHO cells; format: cell-based; settings: 10 μM adenosine, read-out: cAMP & FLIPR IC50 (nM) hA2a
Description: as §1
FLIPR™ and cAMP inhibition activities of exemplary compounds in different adenosine receptor over-expressing cell lines are shown in Table 4 below.

Chain of mA2a (Q60613 whole entry): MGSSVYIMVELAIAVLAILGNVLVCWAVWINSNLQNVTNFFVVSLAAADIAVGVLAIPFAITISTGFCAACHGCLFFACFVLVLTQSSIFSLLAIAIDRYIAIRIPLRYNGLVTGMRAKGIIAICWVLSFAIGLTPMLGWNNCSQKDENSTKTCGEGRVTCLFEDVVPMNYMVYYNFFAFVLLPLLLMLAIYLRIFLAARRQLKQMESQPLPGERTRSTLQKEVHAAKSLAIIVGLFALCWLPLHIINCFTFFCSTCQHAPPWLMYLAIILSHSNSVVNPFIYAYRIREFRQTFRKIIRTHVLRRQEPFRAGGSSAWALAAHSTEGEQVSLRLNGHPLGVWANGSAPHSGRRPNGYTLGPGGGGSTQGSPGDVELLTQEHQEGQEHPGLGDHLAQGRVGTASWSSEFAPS
Chain of hA2a (P29274 whole entry): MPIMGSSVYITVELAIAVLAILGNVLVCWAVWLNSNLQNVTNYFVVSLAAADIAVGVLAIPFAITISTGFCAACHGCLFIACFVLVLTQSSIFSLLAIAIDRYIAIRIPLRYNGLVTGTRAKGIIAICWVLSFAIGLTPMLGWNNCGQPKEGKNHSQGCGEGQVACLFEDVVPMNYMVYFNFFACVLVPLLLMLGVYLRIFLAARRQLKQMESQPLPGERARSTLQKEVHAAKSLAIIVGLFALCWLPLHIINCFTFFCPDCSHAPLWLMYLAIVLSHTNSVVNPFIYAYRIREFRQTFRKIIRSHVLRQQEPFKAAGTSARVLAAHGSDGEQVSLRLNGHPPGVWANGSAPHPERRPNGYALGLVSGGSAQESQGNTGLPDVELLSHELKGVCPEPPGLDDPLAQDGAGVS

`Cc1cnc2ccc(-c3c(-c4ccc(F)cc4)nc(N)n4nc(CC5CCOC5)nc34)cn12` (single isomer, unassigned; isomer 2) [Example 105-2, 7-(4-fluorophenyl)-8-(3-methylimidazo[1,2-a]pyridin-6-yl)-2-((tetrahydrofuran-3-yl)methyl)-[1,2,4]triazolo[1,5-c]pyrimidin-5-amine (isomer 2)] gave an IC50 [1] of 1 nM and an IC50 [2] of 0.1 nM.

Reference: US11629147B2, “Triazolo-pyrimidine compounds and uses thereof” (Dizal (Jiangsu) Pharmaceutical Co., Ltd., priority 2019, dated 2023)
